Results as given in ChEMBL document CHEMBL3132841, “Synthesis and biological evaluation of coumarin1,2,3-triazoledithiocarbamate hybrids as potent LSD1 inhibitors” (Medchemcomm, 2014).
Calls of active or inactive are those of the source. The calls are words filed in the database; no cut-off is given here.

How the values were obtained:
[1] = biological target: Lysine-specific histone demethylase 1A (Homo sapiens, UniProt O60341)
Description: Inhibition of recombinant human LSD1 expressed in Escherichia coli BL21(DE3) using H3K4me2 as substrate by fluorescence assay

[2] = biological target: T1, Amine oxidase [flavin-containing] B (Homo sapiens, UniProt P27338)
T1 sequence (P27338 whole entry): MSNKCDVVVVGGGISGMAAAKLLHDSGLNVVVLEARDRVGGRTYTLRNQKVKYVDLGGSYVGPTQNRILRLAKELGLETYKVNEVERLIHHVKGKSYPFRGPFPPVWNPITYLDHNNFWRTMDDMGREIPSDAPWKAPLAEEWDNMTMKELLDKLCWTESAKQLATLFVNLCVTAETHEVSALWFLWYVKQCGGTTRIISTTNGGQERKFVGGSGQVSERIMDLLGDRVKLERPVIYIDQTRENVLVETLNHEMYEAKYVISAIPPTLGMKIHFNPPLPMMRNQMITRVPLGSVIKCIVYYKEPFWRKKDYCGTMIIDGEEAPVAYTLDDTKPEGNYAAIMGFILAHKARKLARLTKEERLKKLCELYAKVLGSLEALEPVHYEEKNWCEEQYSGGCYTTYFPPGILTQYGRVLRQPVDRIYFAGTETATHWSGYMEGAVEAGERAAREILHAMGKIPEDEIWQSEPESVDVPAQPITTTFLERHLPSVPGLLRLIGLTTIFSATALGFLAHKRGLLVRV
Description: Inhibition of MAO-B (unknown origin)

[3] = biological target: T2, Amine oxidase [flavin-containing] A (Homo sapiens, UniProt P21397)
T2 sequence (P21397 whole entry): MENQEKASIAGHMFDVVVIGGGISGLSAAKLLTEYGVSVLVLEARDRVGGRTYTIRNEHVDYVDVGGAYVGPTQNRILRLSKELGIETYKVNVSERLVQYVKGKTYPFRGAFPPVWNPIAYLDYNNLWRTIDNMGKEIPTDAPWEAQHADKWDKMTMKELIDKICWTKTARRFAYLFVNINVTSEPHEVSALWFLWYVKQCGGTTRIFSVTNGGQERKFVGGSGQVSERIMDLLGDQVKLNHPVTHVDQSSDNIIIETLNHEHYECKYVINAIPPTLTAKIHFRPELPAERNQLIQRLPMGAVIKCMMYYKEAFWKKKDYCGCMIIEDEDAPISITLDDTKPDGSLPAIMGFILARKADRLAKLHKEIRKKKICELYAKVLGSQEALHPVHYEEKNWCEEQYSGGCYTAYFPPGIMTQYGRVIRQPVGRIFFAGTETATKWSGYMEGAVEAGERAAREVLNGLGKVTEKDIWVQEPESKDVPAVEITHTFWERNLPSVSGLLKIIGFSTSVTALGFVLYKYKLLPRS
Description: Inhibition of MAO-A (unknown origin)

MGC-803 = test: Effect on total H3 protein expression in human MGC803 cells at 0.1 to 0.5 uM after 48 hrs by Western blot analysis; assay type: functional, cell-based

| SMILES | IC50 [1] [µM] | other results |
| --- | --- | --- |
| Cc1cc(O)cc2oc(=O)cc(Cn3cc(CSC(=S)N4CCN(C(=O)OC(C)(C)C)CC4)nn3)c12 | > 125 | – |
| CC(C)(C)OC(=O)N1CCN(C(=S)SCc2cn(Cc3cc4ccccc4oc3=O)nn2)CC1 | > 125 | – |
| CC(C)(C)OC(=O)N1CCN(C(=S)SCc2cn(Cc3cc4ccc(O)cc4oc3=O)nn2)CC1 | 103 | – |
| CC(C)(C)OC(=O)N1CCN(C(=S)SCc2cn(Cc3cc(=O)oc4ccc(Cl)cc34)nn2)CC1 | > 125 | – |
| CC(C)(C)OC(=O)N1CCN(C(=S)SCc2cn(Cc3cc(=O)oc4cc(O)ccc34)nn2)CC1 | – | IC50 [2]: > 1250 µM; IC50 [3]: > 1250 µM; Activity (MGC-803): inactive |
| Cc1ccc2oc(=O)cc(Cn3cc(CSC(=S)N4CCN(C(=O)OC(C)(C)C)CC4)nn3)c2c1 | > 125 | – |
